Test results taken from patent publication EP4810052A2, “HCRHR2 SELECTIVE POLYPEPTIDES” (Gubra A/S, priority 2023, dated 2026).
Starred links: 1 amine or outer side, 2 acyl side, 3 side chain; linkers in the order of their positions; H or OH if unused. Residues, ends and D or L forms follow the SMILES beside them. Groups on a side chain read outwards from the residue. *: point of attachment. C20 diacid = O=C(O)CCCCCCCCCCCCCCCCCCC(=O)*; γGlu = O=C(O)[C@H](CCC(=O)[*:2])N[*:1]; AEEA = NCCOCCOCC(=O)O

What was measured:
[1] = Telemetry in mice (blood pressure, heart frequency); type: in vivo
Procedure: Blood pressure and heart frequency were monitored in freely moving conscious mice by radiotelemetry (PA-C10, Data Sciences). Briefly, analgesia with metamizole (100 mg / kg sc) was performed. For implantation of the telemetry transmitter, the animals were anesthetized with isoflurane with 5% induction and 2% maintenance. The neck was opened in the area of the hyoid bone up to the sternum in the median line. A subcutaneous pocket for the transmitter housing was prepared. The dextra carotid artery was then bluntly exposed and clamped. The […] was pushed caudally into the carotid artery through an incision. The catheter was fixed with a monofilament prolene thread, which also closed the incision. The vessel was also ligated cranially, and the clamp was then removed. The transmitter housing was pushed subcutaneously into a prepared skin pocket on the side opposite the catheter. Finally, the skin wound was closed. Postoperatively, an antibiotic (Ursocyclin® 10, Serumwerk Bernburg AG, Germany; 400 mg/l drinking water for 10 days) and an analgesic (Rimadyl®, 4 mg/kg sc for 3 days) were administered postoperatively.
For arterial blood pressure measurements, the animals were kept in a 12h: 12h day night cycle in a suitable room for at least one day before the first measurement. Animals were administrated s.c once daily in the morning for 7 consecutive days with either 1) Placebo, 2) SEQ ID NO: 3, 10 nmol/kg, 3) SEQ ID NO: 3, 30 nmol/kg or 4) SEQ ID NO: 3, 100 nmol/kg in a cross over design with 2 animals per group (n = 6-8) per week and with 1 week washout between treatments. The telemetric measurement took place over 24 hours.
For statistical analysis, 5 hours means were calculated starting from one hour after dosing and one hour after lights off. All data were evaluated using a 2-way ANOVA with Dunnett's test.

[2] = Subchronic unilateral ischemia-reperfusion injury (uIRI) in mice; type: in vivo; details: for BW at termination / Kidney weight at termination: ± SEM
From the text: Male C57BL/6jRj mice were obtained from JanVier (JanVier Labs, France) at 10 weeks of age. The animals were single-housed in Individually Ventilated Cages (IVC from Tecniplast, Typ I SL cage) with free access to water, food and encrichments. Animals were allowed to acclimatize for 7 days prior to study start. After acclimatization, animals were randomized into groups based on body weight; 1) Sham, 2) uIRI - Vehicle, 3) uIRI -SEQ ID NO: 3, 30 nmol/kg and 4) uIRI -SEQ ID NO: 3, 100 nmol/kg.
On study day 0, unilateral ischemia-reperfusion injury (uIRI, 25 min of occlusion followed by reperfusion) was performed on study group 2 - 4 (followed by uninephrectomy (UNx) on study day 6. Animals were subcutaneously dosed once daily starting prior to IRI surgery and until study day 7, where animals were terminated. Here plasma was collected, and the remaining kidney weighed and sampled for histological analysis. Kidneys were stained, analyzed and quantified using the following markers: collagen type-1 (col1a1), F4/80 and KIM-1.

[3] = conscious healthy mice, s.c. once daily 7 days, 10-100 nmol/kg
[4] = mice, 10 nmol/kg, 1. dark period
[5] = mice, 10 nmol/kg, 2. dark period
[6] = mice, 10 nmol/kg, 3. dark period
[7] = mice, 10 nmol/kg, 4. dark period
[8] = mice, 10 nmol/kg, 5. dark period
[9] = mice, 10 nmol/kg, 6. dark period
[10] = mice, 10 nmol/kg, Baseline dark period
[11] = mice, 30 nmol/kg, 1. dark period
[12] = mice, 30 nmol/kg, 2. dark period
[13] = mice, 30 nmol/kg, 3. dark period
[14] = mice, 30 nmol/kg, 4. dark period
[15] = mice, 30 nmol/kg, 5. dark period
[16] = mice, 30 nmol/kg, 6. dark period
[17] = mice, 30 nmol/kg, Baseline dark period
[18] = mice, 100 nmol/kg, 1. dark period
[19] = mice, 100 nmol/kg, 2. dark period
[20] = mice, 100 nmol/kg, 3. dark period
[21] = mice, 100 nmol/kg, 4. dark period
[22] = mice, 100 nmol/kg, 5. dark period
[23] = mice, 100 nmol/kg, 6. dark period
[24] = mice, 100 nmol/kg, Baseline dark period
[25] = 100 nmol/kg, compared to uIRI vehicle

In the case of `CC[C@H](C)[C@H](N)C(=O)N[C@H](C(=O)N[C@@H](CC(C)C)C(=O)N[C@@H](CO)C(=O)N[C@@H](CC(C)C)C(=O)N[C@@H](CC(=O)O)C(=O)N[C@H](C(=O)N1CCC[C@H]1C(=O)N[C@H](C(=O)NCC(=O)N[C@@H](CC(C)C)C(=O)N[C@@H](CC(C)C)C(=O)N[C@@H](CCC(N)=O)C(=O)N[C@H](C(=O)N[C@@H](CC(C)C)C(=O)N[C@@H](CC(C)C)C(=O)N[C@@H](CCC(=O)O)C(=O)N[C@@H](CCC(N)=O)C(=O)N[C@@H](C)C(=O)N[C@@H](CCCNC(=N)N)C(=O)N[C@@H](C)C(=O)N[C@@H](CCCNC(=N)N)C(=O)N[C@@H](C)C(=O)N[C@@H](C)C(=O)N[C@@H](CCCNC(=N)N)C(=O)N[C@@H](CCC(=O)O)C(=O)N[C@@H](CCC(N)=O)C(=O)N[C@@H](C)C(=O)N[C@@H](CCCCNC(=O)COCCOCCNC(=O)COCCOCCNC(=O)CC[C@H](NC(=O)CC[C@H](NC(=O)CCCCCCCCCCCCCCCCCCC(=O)O)C(=O)O)C(=O)O)C(=O)N[C@H](C(=O)N[C@@H](CC(N)=O)C(=O)N[C@@H](C)C(=O)N[C@@H](CCC(=O)O)C(=O)N[C@H](C(=O)N[C@@H](CC(C)C)C(=O)N[C@@H](C)C(=O)N[C@@H](CCC(=O)O)C(=O)N[C@H](C(N)=O)C(C)C)[C@@H](C)CC)[C@@H](C)O)[C@@H](C)CC)[C@@H](C)CC)C(C)C)C(C)C` [SEQ ID NO: 3] (H-IVLSLDVPIGLLQILLEQARARAAREQAK([AEEA-AEEA-γGlu-γGlu-C20 diacid])TNAEILAEV-NH2), the Heart rate [1, 3] is reported as “permanent increase”, the “mean arterial blood pressure” value [1, 3] is reported as “transient and dose-dependent effect” and the Heart rate [1, 4] is reported as 617.82 ± 17.8 BPM. The Mean arterial pressure [1, 4] was 102.19 ± 4.0 mmHg, the Heart rate ([1]; mice, 10 nmol/kg, 1. dose) was 590.34 ± 26.4 BPM and the Mean arterial pressure ([1]; mice, 10 nmol/kg, 1. dose) was 97.23 ± 3.7 mmHg. It also gave a Heart rate [1, 5] of 576.21 ± 15.5 BPM, a Mean arterial pressure [1, 5] of 102.50 ± 2.9 mmHg and a Heart rate ([1]; mice, 10 nmol/kg, 2. dose) of 526.42 ± 18.4 BPM. It also gave a Mean arterial pressure ([1]; mice, 10 nmol/kg, 2. dose) of 89.86 ± 2.5 mmHg, a Heart rate [1, 6] of 570.38 ± 9.8 BPM and a Mean arterial pressure [1, 6] of 101.92 ± 1.5 mmHg. For the same compound, the Heart rate ([1]; mice, 10 nmol/kg, 3. dose) was 517.24 ± 12.1 BPM, the Mean arterial pressure ([1]; mice, 10 nmol/kg, 3. dose) was 89.07 ± 1.9 mmHg and the Heart rate [1, 7] was 557.65 ± 11.8 BPM. It also gave a Mean arterial pressure [1, 7] of 103.17 ± 1.7 mmHg, a Heart rate ([1]; mice, 10 nmol/kg, 4. dose) of 521.88 ± 17.1 BPM and a Mean arterial pressure ([1]; mice, 10 nmol/kg, 4. dose) of 96.25 ± 1.4 mmHg. It also gave a Heart rate [1, 8] of 548.23 ± 8.3 BPM, a Mean arterial pressure [1, 8] of 105.59 ± 1.5 mmHg and a Heart rate ([1]; mice, 10 nmol/kg, 5. dose) of 515.46 ± 3.8 BPM. It also gave a Mean arterial pressure ([1]; mice, 10 nmol/kg, 5. dose) of 93.27 ± 1.8 mmHg, a Heart rate [1, 9] of 571.18 ± 17.4 BPM and a Mean arterial pressure [1, 9] of 104.54 ± 1.8 mmHg. For the same compound, the Heart rate ([1]; mice, 10 nmol/kg, 6. dose) was 538.37 ± 13.6 BPM, the Mean arterial pressure ([1]; mice, 10 nmol/kg, 6. dose) was 99.01 ± 3.0 mmHg and the Heart rate [1, 10] was 573.24 ± 24.3 BPM. It also gave a Mean arterial pressure [1, 10] of 117.13 ± 6.7 mmHg, a Heart rate [1, 11] of 636.57 ± 28.2 BPM and a Mean arterial pressure [1, 11] of 97.14 ± 2.8 mmHg. The Heart rate ([1]; mice, 30 nmol/kg, 1. dose) was 637.60 ± 39.0 BPM, the Mean arterial pressure ([1]; mice, 30 nmol/kg, 1. dose) was 83.81 ± 3.9 mmHg and the Heart rate [1, 12] was 579.68 ± 23.9 BPM. The Mean arterial pressure [1, 12] was 102.00 ± 4.4 mmHg, the Heart rate ([1]; mice, 30 nmol/kg, 2. dose) was 534.13 ± 15.4 BPM and the Mean arterial pressure ([1]; mice, 30 nmol/kg, 2. dose) was 89.68 ± 5.3 mmHg. The Heart rate [1, 13] was 621.30 ± 9.5 BPM, the Mean arterial pressure [1, 13] was 106.02 ± 3.9 mmHg and the Heart rate ([1]; mice, 30 nmol/kg, 3. dose) was 524.21 ± 17.2 BPM. The Mean arterial pressure ([1]; mice, 30 nmol/kg, 3. dose) was 93.98 ± 4.5 mmHg, the Heart rate [1, 14] was 650.03 ± 9.0 BPM and the Mean arterial pressure [1, 14] was 106.67 ± 4.8 mmHg. It also gave a Heart rate ([1]; mice, 30 nmol/kg, 4. dose) of 576.95 ± 21.0 BPM, a Mean arterial pressure ([1]; mice, 30 nmol/kg, 4. dose) of 94.91 ± 5.0 mmHg and a Heart rate [1, 15] of 628.77 ± 14.9 BPM. The Mean arterial pressure [1, 15] was 107.74 ± 5.7 mmHg, the Heart rate ([1]; mice, 30 nmol/kg, 5. dose) was 552.59 ± 12.9 BPM and the Mean arterial pressure ([1]; mice, 30 nmol/kg, 5. dose) was 94.31 ± 5.2 mmHg. For the same compound, the Heart rate [1, 16] was 625.92 ± 11.6 BPM, the Mean arterial pressure [1, 16] was 109.48 ± 6.3 mmHg and the Heart rate ([1]; mice, 30 nmol/kg, 6. dose) was 558.58 ± 15.1 BPM. The Mean arterial pressure ([1]; mice, 30 nmol/kg, 6. dose) was 97.05 ± 6.6 mmHg, the Heart rate [1, 17] was 573.65 ± 26.2 BPM and the Mean arterial pressure [1, 17] was 111.32 ± 3.0 mmHg. For the same compound, the Heart rate [1, 18] was 593.28 ± 23.1 BPM, the Mean arterial pressure [1, 18] was 86.82 ± 2.2 mmHg and the Heart rate ([1]; mice, 100 nmol/kg, 1. dose) was 692.31 ± 7.0 BPM. For the same compound, the Mean arterial pressure ([1]; mice, 100 nmol/kg, 1. dose) was 83.22 ± 5.6 mmHg, the Heart rate [1, 19] was 517.97 ± 16.2 BPM and the Mean arterial pressure [1, 19] was 98.30 ± 4.8 mmHg. The Heart rate ([1]; mice, 100 nmol/kg, 2. dose) was 507.39 ± 8.1 BPM, the Mean arterial pressure ([1]; mice, 100 nmol/kg, 2. dose) was 89.63 ± 4.9 mmHg and the Heart rate [1, 20] was 591.77 ± 7.0 BPM. The Mean arterial pressure [1, 20] was 101.88 ± 5.1 mmHg, the Heart rate ([1]; mice, 100 nmol/kg, 3. dose) was 536.49 ± 10.4 BPM and the Mean arterial pressure ([1]; mice, 100 nmol/kg, 3. dose) was 92.77 ± 4.1 mmHg. It also gave a Heart rate [1, 21] of 606.21 ± 10.1 BPM, a Mean arterial pressure [1, 21] of 103.60 ± 5.3 mmHg and a Heart rate ([1]; mice, 100 nmol/kg, 4. dose) of 560.41 ± 16.0 BPM. The Mean arterial pressure ([1]; mice, 100 nmol/kg, 4. dose) was 94.17 ± 3.4 mmHg, the Heart rate [1, 22] was 619.17 ± 11.0 BPM and the Mean arterial pressure [1, 22] was 103.68 ± 4.4 mmHg. The Heart rate ([1]; mice, 100 nmol/kg, 5. dose) was 554.35 ± 15.3 BPM, the Mean arterial pressure ([1]; mice, 100 nmol/kg, 5. dose) was 91.26 ± 2.0 mmHg and the Heart rate [1, 23] was 612.05 ± 11.8 BPM. It also gave a Mean arterial pressure [1, 23] of 103.45 ± 3.1 mmHg, a Heart rate ([1]; mice, 100 nmol/kg, 6. dose) of 550.11 ± 16.2 BPM and a Mean arterial pressure ([1]; mice, 100 nmol/kg, 6. dose) of 88.76 ± 1.3 mmHg. For the same compound, the Heart rate [1, 24] was 581.49 ± 7.7 BPM, the Mean arterial pressure [1, 24] was 108.55 ± 1.2 mmHg and the “Renal fibrosis, Col1a1” value ([2]; 30 nmol/kg) was 34.3 ± 2.3 fractional area %. The “Renal inflammation, F4/80” value ([2]; 30 nmol/kg) was 7.3 ± 0.6 fractional area %, the “Renal injury, KIM-1” value ([2]; 30 nmol/kg) was 7.48 ± 0.49 fractional area % and the Serum creatinine ([2]; 30 nmol/kg) was 1.83 ± 0.004 mg/dL. The Serum urea ([2]; 30 nmol/kg) was 463.0 ± 10.5 mg/dL, the BW at termination ([2]; 30 nmol/kg) was 24.4 ± 0.5 g and the “Kidney weight at termination” value ([2]; 30 nmol/kg) was 0.16 ± 0.005 g. The “Renal fibrosis, Col1a1” value ([2]; 100 nmol/kg) was 26.4 ± 1.4 fractional area %, the “Renal inflammation, F4/80” value ([2]; 100 nmol/kg) was 2.5 ± 0.6 fractional area % and the “Renal injury, KIM-1” value ([2]; 100 nmol/kg) was 6.00 ± 0.50 fractional area %. For the same compound, the Serum creatinine ([2]; 100 nmol/kg) was 1.17 ± 0.13 mg/dL, the Serum urea ([2]; 100 nmol/kg) was 433 ± 22.5 mg/dL and the kidney fibrosis [2, 25] was “reduced”. The kidney inflammation [2, 25] was “reduced”, the “serum levels of creatinine” value [2, 25] was “reduced” and the BW at termination ([2]; 100 nmol/kg) was 21.8 ± 0.4 g. The “Kidney weight at termination” value ([2]; 100 nmol/kg) was 0.16 ± 0.006 g.
